Assay results as given in patent US20020127263A1, “Peroxisome proliferator-acitvated receptor gamma ligand eluting medical device” (priority 2001, published 2002).

How the values were obtained:
[1] = test system: HCASMCs; test: Ciglitazone cytotoxicity against HCASMCs (lactate dehydrogenase); format: cell-based, Human; conditions: HCASMC, 0.001 μg/mL to 10 μg/mL Ciglitazone, after 24 hours, FIG. 1c
Protocol: (§1) Ciglitazone cytotoxicity against HCASMCs was evaluated by seeding 24 well cell culture plates with 5.0×10^5HCASM cells/mL of cell culture media containing from 0.001 μg/mL to 10 μg/mL of Ciglitazone. Samples were taken after 24 hours and tested for lactate dehydrogenase […] concentration using methods known to those having ordinary skill in the art. Elevated LDL levels indicates cytotoxicity. FIG. 1c graphically depicts the cytotoxicity testing results.

[2] = test system: HCAECs; test: Ciglitazone cytotoxicity against HCAECs (lactate dehydrogenase); format: cell-based, Human; conditions: HCAEC, 0.001 μg/mL to 10 μg/mL Ciglitazone, after 24 hours, FIG. 2c
Protocol: as §1, with “HCAECs” for “HCASMCs”, “5.0×10^5 HCAE” for “5.0×10^5HCASM”, “indicate” for “indicates”, “2c” for “1c”

[3] = test system: Human coronary smooth muscles cells (HCASMC); test: HCASMC proliferation inhibition by Ciglitazone; format: cell-based; conditions: day four, both cell culture schemes, FIG. 1a
Protocol: Human coronary smooth muscles cells (HCASMC) were seeded in 24 well polystyrene tissue culture plates at a density of 5×10^3 cells per well. Two different feeding and reading strategies were employed. Strategy 1: Cells were plated in cell culture media containing various concentrations of Ciglitazone and incubated at 37° C. for 48 hours. After the initial 48 hour incubation, the Ciglitazone containing plating media was changed and the cells were fed with drug free media and incubated for an additional 48 hours and then read. Strategy 2: Cells were plated in cell culture media containing various concentrations of Ciglitazone and incubated at […] for 48 hours. After the initial 48 hour incubation, the Ciglitazone-containing plating media was changed and the cells were fed with Ciglitazone-containing media and incubated for an additional 48 hours and then read. On day four cultures were analyzed to determine the proliferation inhibition effects of Ciglitazone. FIG. 1a graphically depicts the percent inhibition at Ciglitazone levels between 0.001 μg/mL to 50 μg/mL for both cell culture schemes. It can be seen from FIG. 1a that significant HCASMC inhibition (>50% inhibition) begins at a dosage of 10 μg/mL and rises dramatically to nearly 100% at 50 μg/mL. FIG. 1b graphically depicts the same results in bar graph form based on cell counts.

[4] = test system: Human coronary artery endothelial cells (HCAEC); test: HCAEC proliferation inhibition by Ciglitazone; format: cell-based; conditions: Endothelial cell, day four, both cell culture schemes, FIG. 2a
Protocol: Human coronary artery endothelial cells (HCAEC) were seeded in 24 well polystyrene tissue culture plates at a density of 5×10^3 cells per well. Two different feeding strategies and reading strategies were employed. Strategy 1: Cells were plated in cell culture media containing various concentrations of Ciglitazone and incubated at 37° C. for 48 hours. After the initial 48 hour incubation, the Ciglitazone containing plating media was changed and the cells were fed with drug free media and incubated for an additional 48 hours and then read. Strategy 2: Cells were plated in cell culture media containing various concentrations of Ciglitazone and incubated at […] for 48 hours. After the initial 48 hour incubation, the Ciglitazone-containing plating media was changed and the cells were fed with Ciglitazone-containing media and incubated for an additional 48 hours and then read. On day four cultures were analyzed to determine the proliferation inhibition effects of Ciglitazone. […] graphically depicts the percent inhibition at Ciglitazone levels between 0.001 μg/mL to 50 μg/mL for both cell culture schemes. It can be seen from FIG. 2a that significant HCAEC inhibition (>50% inhibition) begins at a dosage of 5 μg/mL and rises dramatically to nearly 100% at 10 μg/mL. FIG. 2b graphically depicts the same results in bar graph form based on cell counts.

With `CC1(COc2ccc(CC3SC(=O)NC3=O)cc2)CCCCC1` (stereo not drawn) [Ciglitazone] the “cytotoxicity (lactate dehydrogenase concentration)” value [1] was “No cytotoxicity was detected”, the “cytotoxicity (lactate dehydrogenase concentration)” value [2] was “No cytotoxicity was detected” and the inhibition at 10 µg/mL ([3]; 10 μg/mL Ciglitazone) was greater than 50%. For the same molecule, the inhibition at 50 µg/mL ([3]; 50 μg/mL Ciglitazone) was roughly 100%, the inhibition at 5 µg/mL ([4]; 5 μg/mL Ciglitazone) was greater than 50% and the inhibition at 10 µg/mL ([4]; 10 μg/mL Ciglitazone) was roughly 100%.
